Paper PMC5429603, “Discovery and characterization of verinurad, a potent and specific inhibitor of URAT1 for the treatment of hyperuricemia and gout” (Scientific Reports, 2017)
Numbering of substitutions follows the chain as printed. Read-outs that look alike come from different tables or passages of the source.

How the values were obtained:
human URAT1 [1] = target: T1, human URAT1 (Homo sapiens, UniProt Q96S37); assay: URAT1 binding assay with 3H-verinurad, human URAT1 membranes; settings: for mode of inhibition of 3H-verinurad binding: human URAT1 membranes
T1 sequence (Q96S37 1-553): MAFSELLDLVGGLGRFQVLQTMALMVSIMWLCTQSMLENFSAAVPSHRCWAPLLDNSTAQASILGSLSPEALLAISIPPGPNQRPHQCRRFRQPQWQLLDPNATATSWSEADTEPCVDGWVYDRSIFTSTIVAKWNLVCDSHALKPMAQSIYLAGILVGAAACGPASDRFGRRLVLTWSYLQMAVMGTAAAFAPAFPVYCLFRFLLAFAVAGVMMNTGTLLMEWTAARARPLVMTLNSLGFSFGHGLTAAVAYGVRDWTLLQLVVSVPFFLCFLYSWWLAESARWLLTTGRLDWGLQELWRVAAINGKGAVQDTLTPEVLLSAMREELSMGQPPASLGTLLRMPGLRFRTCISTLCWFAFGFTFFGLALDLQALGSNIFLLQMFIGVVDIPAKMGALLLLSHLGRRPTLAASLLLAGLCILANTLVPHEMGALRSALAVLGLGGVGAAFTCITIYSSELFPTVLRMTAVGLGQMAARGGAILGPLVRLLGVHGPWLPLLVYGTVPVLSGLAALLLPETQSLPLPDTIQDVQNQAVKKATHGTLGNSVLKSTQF
Description: Membranes were prepared from cells transfected on the previous day with URAT1 expression constructs. Cells (5–10 × 10^8) were harvested in 1 ml ice-cold binding buffer (25 mM HEPES pH 7.3, 125 mM sodium gluconate) containing complete, EDTA-free protease inhibitor cocktail (Sigma). Cells were lysed with 100 strokes in a 2 ml dounce homogenizer using a tight-fitting “B” stem. Lysates were transferred to 1.5 mL Eppendorf tubes and centrifuged at 250 rcf for 5 minutes at 2 °C, and supernatants were transferred to fresh tubes and centrifuged again at 18,000 rcf for 20 minutes at 2 °C. The pellets (membrane fractions) were resuspended in 1 ml of ice-cold binding buffer containing protease inhibitors and frozen at −80 °C. Protein was measured using the Bio-Rad protein assay dye reagent concentrate.
Samples were then rapidly filtered through 25 mm glass fiber/1.2 µM PES 96-well filter plates (Corning FiltrEX 3510), and washed once with 200 µl ice-cold binding buffer. The plates were then subjected to scintillation counting. All samples were assayed in triplicate.
GraphPad Prism software was used for non-linear regression and statistical analyses. […] For kinetic measurements (K m and B max values), the “one site – specific binding” equation was used, after subtracting transport or binding measurements from control transfected cells. Statistical significance was assessed using Student’s unpaired t-tests.

human URAT1 h-F241Y = target: T2, human URAT1 h-F241Y (Homo sapiens, UniProt Q96S37, F241Y); assay: URAT1 activity assay, h-F241Y; type: cell-based
T2 construct: expressed in transfected cells; host or cells: HEK-293T
T2 sequence (Q96S37 1-553 F241Y): T1 sequence (Q96S37 1-553) with F241Y
From the text: (§1) Human URAT1 (GenBank BC053348.1, Homo sapiens SLC22A12), rat URAT1 (NCBI NM_001034943.1, Rattus norvegicus Slc22a12) and human OAT4 (NCBI NM_018484.2, Homo sapiens SLC22A11) genes were purchased from Origene Technologies, Inc. and subcloned into pCMV6/neo using NotI. Where indicated, controls transfections used pCMV6/neo. Mutants were produced by site-directed mutagenesis using the QuikChange Lightning Multi Site-Directed Mutagenesis Kit (Agilent Technologies). […] Mutagenic primer sequences are provided in ref. [15] and mutagenic primer sequences for previously unreported mutants shown in Supplementary Table 1. All constructs used in this study were untagged. Human OAT1 was purchased from Fisher Scientific (catalog # MHS1010–7508183 in pSPORT6, NCBI NM_153276.2, Homo sapiens SLC22A6).
(§2) HEK-293T cells were maintained in DMEM/high glucose/L-glutamine/HEPES supplemented with 1 mM sodium pyruvate (Life Technologies) and 10% FBS (PAA Laboratories) at 37 °C in 5% CO2. To express URAT1, OAT4 or OAT1, plasmids were reverse transfected into HEK-293T cells. DNA (10 µg) was mixed with 30 µl of DreamFect Gold (Boca Scientific) in 2 ml OptiMem (Life Technologies). After 20 minutes, 18 ml of media containing 2 × 10^7 cells in suspension was added and mixed, and 200 µl per well were plated onto white clear-bottomed poly-D-lysine coated 96-well plates (BD Biosciences). The cells were assayed the following day.
(§3) URAT1 and OAT4 activity assays were performed in assay buffer consisting of 25 mM MES pH 5.5 (from a 1 M MES solution [Sigma] adjusted to pH 5.5 with sodium hydroxide), 125 mM sodium gluconate, 4.8 mM potassium gluconate, 1.2 mM monobasic potassium phosphate, 1.2 mM magnesium sulfate, 1.3 mM calcium gluconate and 5.6 mM glucose. URAT1 inhibitors were serially diluted into assay buffer and added to the cells for 5 minutes prior to addition of substrate. URAT1-expressing cells were incubated with 100 µM ^14C-uric acid for 10 minutes and OAT4-expressing cells were incubated with 20 µM carboxyfluorescein (Life Technologies, Inc.) for 5 minutes. Cells were then washed three times in 25 mM MES pH 5.5/125 mM sodium gluconate, and solubilized in Ultima Gold (Perkin Elmer) prior to liquid scintillation counting. Each treatment was measured in triplicate.

human URAT1 h-R477K = target: T3, human URAT1 h-R477K (Homo sapiens, UniProt Q96S37, R477K); assay: URAT1 activity assay, h-R477K; type: cell-based
T3 construct: expressed in transfected cells; host or cells: HEK-293T
T3 sequence (Q96S37 1-553 R477K): T1 sequence (Q96S37 1-553) with R477K
From the text: as §1, §2, §3

human URAT1 h-F449Y = target: T4, human URAT1 h-F449Y (Homo sapiens, UniProt Q96S37, F449Y); assay: URAT1 activity assay, h-F449Y; type: cell-based
T4 construct: expressed in transfected cells; host or cells: HEK-293T
T4 sequence (Q96S37 1-553 F449Y): T1 sequence (Q96S37 1-553) with F449Y
From the text: as §1, §2, §3

human URAT1 [2] = target: T1, human URAT1; assay: URAT1 activity assay (14C-uric acid transport), human URAT1; type: cell-based; set-up: host or cells: HEK-293T; settings: human URAT1 wild type in HEK-293T; 100 µM 14C-uric acid, pH 5.5; read-out: IC50, inhibition of transport activity
Description: as §2, §3

rat URAT1-Y365F [3] = target: T5, rat URAT1-Y365F (Rattus norvegicus, UniProt Q3ZAV1, Y365F); set-up: method as in Tan et al., 2016; settings: ref Tan et al., 2016; cited from earlier work
T5 construct: expressed in transfected cells; host or cells: HEK-293T
T5 sequence (Q3ZAV1 1-553 Y365F): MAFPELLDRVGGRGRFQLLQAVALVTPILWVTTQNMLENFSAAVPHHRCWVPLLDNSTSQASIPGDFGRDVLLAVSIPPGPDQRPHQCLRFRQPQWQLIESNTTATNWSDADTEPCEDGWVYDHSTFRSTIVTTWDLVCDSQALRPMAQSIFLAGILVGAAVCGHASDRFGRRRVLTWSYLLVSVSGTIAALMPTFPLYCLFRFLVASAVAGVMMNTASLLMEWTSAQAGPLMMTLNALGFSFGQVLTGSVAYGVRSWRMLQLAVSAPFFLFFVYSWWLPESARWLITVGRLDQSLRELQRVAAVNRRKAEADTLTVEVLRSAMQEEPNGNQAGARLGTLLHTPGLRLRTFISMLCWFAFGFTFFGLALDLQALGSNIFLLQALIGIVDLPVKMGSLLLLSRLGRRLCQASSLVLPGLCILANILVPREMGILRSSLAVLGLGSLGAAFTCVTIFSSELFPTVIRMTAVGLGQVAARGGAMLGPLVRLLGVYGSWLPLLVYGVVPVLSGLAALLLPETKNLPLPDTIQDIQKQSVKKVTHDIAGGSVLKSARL

rat URAT1-Y365F [4] = target: T5, rat URAT1-Y365F; assay: Uric acid transport kinetics, rat URAT1-Y365F; type: cell-based
Rat URAT1-N35S = target: T6, Rat URAT1-N35S (Rattus norvegicus, UniProt Q3ZAV1, N35S); assay: Uric acid transport kinetics, rat URAT1-N35S; type: cell-based
T6 construct: expressed in transfected cells; host or cells: HEK-293T

Rat URAT1-N35S/Y365F = target: T7, Rat URAT1-N35S/Y365F (Rattus norvegicus, UniProt Q3ZAV1, N35S/Y365F); assay: Uric acid transport kinetics, rat URAT1-N35S/Y365F; type: cell-based
T7 construct: expressed in transfected cells; host or cells: HEK-293T
Description: as §2
as §3, with “Cells were then washed three times in 25 mM MES pH 5.5/125 mM sodium gluconate, and solubilized in Ultima Gold (Perkin Elmer) prior to liquid scintillation counting.” left out

human URAT1 [5] = target: T1, human URAT1; set-up: host or cells: HEK-293T; method as in Tan et al., 2016; settings: cited from earlier work
human URAT1 [6] = target: T1, human URAT1; assay: Uric acid transport kinetics, human URAT1; type: cell-based; set-up: host or cells: HEK-293T; settings: human URAT1 vs rat URAT1
Description: as §2
as §3, with “Cells were then washed three times in 25 mM MES pH 5.5/125 mM sodium gluconate, and solubilized in Ultima Gold (Perkin Elmer) prior to liquid scintillation counting.” left out

rat URAT1 = target: T8, rat URAT1 (Rattus norvegicus, UniProt Q3ZAV1); set-up: method as in Tan et al., 2016; settings: cited from earlier work
T8 construct: host or cells: HEK-293T
T8 sequence (Q3ZAV1 1-553): T5 sequence (Q3ZAV1 1-553 Y365F) with F365Y

[7] = ref Tan et al., 2016, listed as urate

T7 sequence (Q3ZAV1 whole entry N35S/Y365F): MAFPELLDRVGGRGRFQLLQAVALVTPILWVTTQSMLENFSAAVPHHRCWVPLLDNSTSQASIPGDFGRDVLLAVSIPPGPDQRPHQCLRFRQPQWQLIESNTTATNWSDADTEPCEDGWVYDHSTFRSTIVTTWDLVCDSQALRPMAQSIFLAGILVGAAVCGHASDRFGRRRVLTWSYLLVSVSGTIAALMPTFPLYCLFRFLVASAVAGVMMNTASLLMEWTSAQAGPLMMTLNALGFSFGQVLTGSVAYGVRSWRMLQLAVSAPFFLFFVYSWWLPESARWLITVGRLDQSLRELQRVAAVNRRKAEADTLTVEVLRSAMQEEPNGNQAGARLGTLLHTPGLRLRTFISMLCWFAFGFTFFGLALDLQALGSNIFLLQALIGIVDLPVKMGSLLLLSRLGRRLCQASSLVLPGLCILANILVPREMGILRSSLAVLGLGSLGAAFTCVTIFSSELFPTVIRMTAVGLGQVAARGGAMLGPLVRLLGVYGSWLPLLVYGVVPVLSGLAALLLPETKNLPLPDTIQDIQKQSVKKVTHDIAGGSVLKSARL
T6 sequence (Q3ZAV1 whole entry N35S): as the sequence (Q3ZAV1 whole entry N35S/Y365F) above, with F365Y counted along it

## CCCN(CCC)S(=O)(=O)c1ccc(C(=O)O)cc1 [probenecid]
Human URAT1 [1]
  mode of inhibition of 3H-verinurad binding: competitive mode of inhibition

## CCc1oc2ccccc2c1C(=O)c1cc(Br)c(O)c(Br)c1 [benzbromarone, Benzbromarone]
Human URAT1 [1]
  mode of inhibition of 3H-verinurad binding: competitive mode of inhibition

## O=C1C(CC[S+]([O-])c2ccccc2)C(=O)N(c2ccccc2)N1c1ccccc1 (centres unmarked) [sulfinpyrazone, reference compound]
Human URAT1 h-F241Y; h-F241Y
  fold reduced affinity compared to human URAT1: 7 fold
Human URAT1 h-F241Y; h-F241Y binding site point mutant
  IC50: 23 µM
Human URAT1 h-R477K; h-R477K
  fold increased affinity compared to human URAT1: 2 fold
Human URAT1 h-R477K; h-R477K binding site point mutant
  IC50: 2 µM
Human URAT1 h-F449Y; h-F449Y
  fold reduced affinity compared to human URAT1: 3 fold
Human URAT1 h-F449Y; h-F449Y binding site point mutant
  IC50: 9.7 µM
Human URAT1 [2]
  IC50: 3.4 µM
Human URAT1 [1]
  IC50: 8.6 µM
  Ki: 52 µM
  mode of inhibition of 3H-verinurad binding: competitive mode of inhibition

## O=c1[nH]c(=O)c2[nH]c(=O)[nH]c2[nH]1 [uric acid]
Rat URAT1-Y365F [3]
  K m (µM), uric acid transport affinity: 560 ± 28 µM
Rat URAT1-Y365F [4]
  fold increase in urate affinity over rat URAT1: 1.5 fold
Rat URAT1-N35S; Rat URAT1-N35S
  K m (µM), uric acid transport affinity: 697 ± 93 µM
Rat URAT1-N35S; rat URAT1-N35S
  urate affinity phenotype relative to rat URAT1: no phenotype
Rat URAT1-N35S/Y365F; Rat URAT1-N35S/Y365F
  K m (µM), uric acid transport affinity: 222 ± 16 µM
Rat URAT1-N35S/Y365F; rat URAT1-N35S/Y365F
  fold increase in urate affinity relative to rat URAT1: ~4 fold
Human URAT1 [5]; [7]
  K m (µM), uric acid transport affinity: 122 µM
Human URAT1 [5]; ref Tan et al., 2016
  K m (µM), uric acid transport affinity: 122 ± 3 µM
Human URAT1 [6]
  fold higher affinity for urate of human URAT1 relative to rat URAT1: 7 fold
Rat URAT1; [7]
  K m (µM), uric acid transport affinity: 857 µM
Rat URAT1; ref Tan et al., 2016
  K m (µM), uric acid transport affinity: 857 ± 6 µM
